Values of other authors as cited in US7612060B2, “Triazoles and methods of use” (Amgen Inc., priority 2004, dated 2009).
Where no end group is shown, it is not given here.

Details: reported

Question: For RPPGFSPFR [BK, Bradykinin], which “half-life of BK in plasma” value is on record?
Answer: approximately 17 seconds
